# Reference: US20230263900A1, “DENDRIMER-DRUG CONJUGATE” (priority 2020, published 2023)
# Read-outs that look alike come from different tables or passages of the source.
# Legend:
# [1] = Release of Remdesivir in PBS buffer (Release Method 1); assay type: physicochemical; details: PBS buffer with 10% v/v DMSO, pH 7.4, 37° C.
# Procedure: Release Method 1: An accurately weighed amount of the Remdesivir-dendrimer (10 mg) construct was dissolved in pH 7.4 PBS buffer:DMSO (9:1 v/v) and the volume made up to 20.0 mL in a volumetric flask to give a 0.5 mg/mL stock solution. The stock solution was aliquoted into several 2 mL screw-cap vials, the caps fitted and the vials heated at 37° C. The aliquoted solutions were analyzed at different time points by HPLC (HPLC Method 3). The concentration of Remdesivir RHa-1 was calculated by comparing the area under the peak associated with Remdesivir RHa-1 to a standard curve in MeCN:DMSO (9:1, v/v). The percentage of Remdesivir RHa-1 released is the percentage of available Remdesivir RHa-1 based on the loading of the construct as determined by ^1H NMR analysis (API Loading Method 1).
# The extent to which the Remdesivir RHa-1 was released over time in PBS buffer (with 10% v/v DMSO) (pH 7.4) at 37° C. was determined for 5 constructs, RHa-17, RHa-15, RHa-11, RHa-5 and RHa-3 (Release Method 1) over 120 hours.
# Trace amounts of other components were also observed (presumed to be degradation products of Remdesivir RHa-1). The area under the resolvable (separated) peaks associated with these degradants was also added to the peak area associated with released Remdesivir RHa-1.
# BHALys [Lys]2[Lys]4[Lys]8[Lys]16[Lys]32[(α-NH-6N-TDA-Remdesivir)32(ε-NH-COPEG2000)32] RHa-5 contained 1.77% free Remdesivir RHa-1 at t=0 min. The value of released Remdesivir RHa-1 shown in FIG. 3 has been adjusted to take this into account.
# Solubility studies = assay type: physicochemical
# Procedure: The solubility of BHALys[Lys]2[Lys]4[Lys]8[Lys]16[Lys]32[(α-NH-3′ O-Glu-Remdesivir)32(ε-NH-COPEG2000)32] RHa-3 in water was determined to be ≥200 mg/mL (or ≥43.6 mg/mL Remdesivir RHa-1) by adding water (250 μL) to 50.0 mg of BHALys [Lys]2[Lys]4[Lys]8[Lys]16[Lys]32[(α-NH-3′ O-Glu-Remdesivir)32(ε-NH-COPEG2000)32] and swirling briefly. After 2 min, the resulting solution was visually inspected for particulates and found to be a clear solution (see FIG. 2). Solutions shown are 40 mg/ml Remdesivir equivalents (equivalent to 200 mg/ml of conjugate RHa-3).
# The solubility of BHALys[Lys]2[Lys]4[Lys]8[Lys]16[Lys]32[(α-NH-6N-TDA-Remdesivir)32(ε-NH-COPEG2000)32] RHa-5, in EtOH:Water (1:9 v/v) was determined to be ≥543 mg/mL (or ≥107 mg/mL Remdesivir RHa-1) by adding water EtOH:Water (1:9 v/v, 400 μL) to 380 mg of RHa-5. The mixture was swirled briefly and left to stand at rt. After 1.5 h the resulting solution (volume recorded=700 μL) was visually inspected for particulates and found to be a clear solution.
# The solubility of BHALys[Lys]2[Lys]4[Lys]8[Lys]16[Lys]32[(α-NH-6N-TDA-Remdesivir)32(ε-NH-COPEG1000)32] RHa-17 in EtOH:Water (1:9 v/v) was determined to be ≥354* mg/mL (or ≥85 mg/mL Remdesivir RHa-1) by adding EtOH:Water (1:9 v/v, 958 μL) portionwise to 525 mg of RHa-17, over a period of 1.5 h with intermittent swirling. The resulting solution was visually inspected for particulates and found to be a clear solution.
# (*Total volume not recorded. Assumes 1 mg construct contributes to 1 μL of final solution (i.e., total volume of final solution=1483 μL)).
# [2] = Viscosity measurements (Viscosity Method 1); assay type: physicochemical; details: 50 mg/mL Remdesivir equivalents in EtOH: Water (1:9 v/v)
# Procedure: Viscosities were measured on Anton Paar ViscoQC300 Viscometer using CC-12 cup.
# Viscosity Method 1: A reference standard solution (Standard Type: RT500, CAS No. 63148-62-9, Paragon Scientific Ltd) was first recorded and found to be within the range of reported value (at 20° C.: found 556.6 cP, theoretical 551.0 cP; at 25° C.: found 503.3 cP, theoretical 498.6 cP). Accurately weighed quantities of respective conjugates were dissolved in EtOH:Water […] to make a 50 mg/mL Remdesivir equivalent solution (total volume 2.30-2.40 mL) and the viscosity of the solution was recorded at 20° C. and 25° C.
# Viscosities of 2 formulations containing either RHa-5 or RHa-17 in EtOH: Water (1:9 v/v) were measured using Viscosity Method 1
# [3] = cited from earlier work
# Coronavirus infection = details: cited from earlier work
compound,measurement,setting,value
BHALys[Lys]2[Lys]4[Lys]8[Lys]16[Lys]32[(α-NH-3′O-TDA-Remdesivir)32(ε-NH-COPEG2000)32] [RHa-15],Approx. Time taken for 50% Remdesivir release,[1],~9 h
BHALys[Lys]2[Lys]4[Lys]8[Lys]16[Lys]32[(α-NH-6N-TDA-Remdesivir)32(ε-NH-COPEG2000)32] [RHa-5],Approx. Time taken for 50% Remdesivir release,[1],~58 h
same,Solubility in EtOH:Water (1:9 v/v),"Solubility studies; EtOH:Water (1:9 v/v), conjugate mass, rt",≥ 543 mg/mL
same,"Solubility in EtOH:Water (1:9 v/v), as Remdesivir RHa-1","Solubility studies; EtOH:Water (1:9 v/v), expressed as Remdesivir RHa-1",≥ 107 mg/mL
same,Viscosity at 20° C.,[2],144.2 cP
same,Viscosity at 25° C.,[2],100.6 cP
"CCC(CC)COC(=O)[C@H](C)N[P@](=O)(OC[C@H]1O[C@@](C#N)(c2ccc3c(N)ncnn23)[C@H](O)[C@@H]1O)Oc1ccccc1 [RDV, 2-Ethylbutyl (2S)-2-{[(S)-{[(2R,3S,4R,5R)-5-(4-aminopyrrolo[2,1-f][1,2,4]triazin-7-yl)-5-cyano-3,4-dihydroxytetrahydrofuran-2-yl]methoxy}(phenoxy)phosphoryl]amino}propanoate]",Cmax,[3]; after 200 mg dose of Remdesivir,5440 ng/mL
same,Median terminal half-life,"[3]; human, in vivo",approximately 1 hours
same,Plasma half-life,"[3]; in vivo, iv",approximately 1 hour
same,"Clinical recovery, figure in parentheses (share of patients)","Coronavirus infection; 5-Day RDV, n = 200, Day 14",(65)
same,"Clinical recovery, patients","Coronavirus infection; 5-Day RDV, n = 200, Day 14",129
same,"Death, figure in parentheses (share of patients)","Coronavirus infection; 5-Day RDV, n = 200, Day 14",(8)
same,"Death, patients","Coronavirus infection; 5-Day RDV, n = 200, Day 14",16
same,"Discharge, figure in parentheses (share of patients)","Coronavirus infection; 5-Day RDV, n = 200, Day 14",(60)
same,"Discharge, patients","Coronavirus infection; 5-Day RDV, n = 200, Day 14",120
same,"≥ 2-point improvement in ordinal scale, figure in parentheses (share of patients)","Coronavirus infection; 5-Day RDV, n = 200, Day 14",(65)
same,"≥ 2-point improvement in ordinal scale, patients","Coronavirus infection; 5-Day RDV, n = 200, Day 14",129
same,"AE leading to discontinuation, figure in parentheses (share of patients)","Coronavirus infection; 5-Day RDV, n = 200",(5)
same,"AE leading to discontinuation, patients","Coronavirus infection; 5-Day RDV, n = 200",9
same,"Any adverse event (AE), figure in parentheses (share of patients)","Coronavirus infection; 5-Day RDV, n = 200",(71)
same,"Any adverse event (AE), patients","Coronavirus infection; 5-Day RDV, n = 200",141
same,"Grade ≥ 3 study drug-related AE, figure in parentheses (share of patients)","Coronavirus infection; 5-Day RDV, n = 200",(4)
same,"Grade ≥ 3 study drug-related AE, patients","Coronavirus infection; 5-Day RDV, n = 200",8
same,"Study drug-related serious adverse event (SAE), figure in parentheses (share of patients)","Coronavirus infection; 5-Day RDV, n = 200",(2)
same,"Study drug-related serious adverse event (SAE), patients","Coronavirus infection; 5-Day RDV, n = 200",3
same,Time to clinical improvement for 50% of patients,Coronavirus infection; 5-day treatment group,10 days
same,"Clinical recovery, figure in parentheses (share of patients)","Coronavirus infection; 10-Day RDV, n = 197, Day 14",(54)
same,"Clinical recovery, patients","Coronavirus infection; 10-Day RDV, n = 197, Day 14",106
same,"Death, figure in parentheses (share of patients)","Coronavirus infection; 10-Day RDV, n = 197, Day 14",(11)
same,"Death, patients","Coronavirus infection; 10-Day RDV, n = 197, Day 14",21
same,"Discharge, figure in parentheses (share of patients)","Coronavirus infection; 10-Day RDV, n = 197, Day 14",(52)
same,"Discharge, patients","Coronavirus infection; 10-Day RDV, n = 197, Day 14",103
same,"≥ 2-point improvement in ordinal scale, figure in parentheses (share of patients)","Coronavirus infection; 10-Day RDV, n = 197, Day 14",(54)
same,"≥ 2-point improvement in ordinal scale, patients","Coronavirus infection; 10-Day RDV, n = 197, Day 14",107
same,"AE leading to discontinuation, figure in parentheses (share of patients)","Coronavirus infection; 10-Day RDV, n = 197",(10)
same,"AE leading to discontinuation, patients","Coronavirus infection; 10-Day RDV, n = 197",20
same,"Any adverse event (AE), figure in parentheses (share of patients)","Coronavirus infection; 10-Day RDV, n = 197",(74)
same,"Any adverse event (AE), patients","Coronavirus infection; 10-Day RDV, n = 197",145
same,"Grade ≥ 3 study drug-related AE, figure in parentheses (share of patients)","Coronavirus infection; 10-Day RDV, n = 197",(5)
same,"Grade ≥ 3 study drug-related AE, patients","Coronavirus infection; 10-Day RDV, n = 197",10
same,"Study drug-related serious adverse event (SAE), figure in parentheses (share of patients)","Coronavirus infection; 10-Day RDV, n = 197",(2)
same,"Study drug-related serious adverse event (SAE), patients","Coronavirus infection; 10-Day RDV, n = 197",4
same,Time to clinical improvement for 50% of patients,Coronavirus infection; 10-day treatment group,11 days
same,Appearance in water at 40 mg/mL,"Solubility studies; water, 40 mg/mL, FIG. 2",suspension
